Experimental data taken from ChEMBL document CHEMBL1201862, “PubChem BioAssay data set” (2004).
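48-hour exposure; five concentrations; linearly interpolated endpoints. Abbreviation: GI50, concentration required for 50% inhibition of growth.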 Activity calls are given as the source filed them. No stated cut-off is given here; in the data, active = GI50 up to about 1.1 µM and inactive = higher. Where a SMILES comes first, the peptide text is derived from it. The star is where a group is joined. Boc = CC(C)(C)OC(=O)*; tBu = CC(C)(C)*

Tests used:
Test in all cases: inhibition of tumour cell growth, NCI panel, 48 h
A498 = test system: A498
HL-60 = test system: HL-60
HOP-62 = test system: HOP-62
HOP-92 = test system: HOP-92
HT-29 = test system: HT-29
LOX IMVI = test system: LOX IMVI
M14 = test system: M14
MDA-MB-231 = test system: MDA-MB-231
NCI-H460 = test system: NCI-H460
NCI/ADR-RES = test system: NCI/ADR-RES
RXF 393 = test system: RXF 393
SF-268 = test system: SF-268
SF-539 = test system: SF-539
SK-MEL-2 = test system: SK-MEL-2
SK-MEL-5 = test system: SK-MEL-5
SK-OV-3 = test system: SK-OV-3
SW-620 = test system: SW-620
UO-31 = test system: UO-31
KM12 = test system: KM12
HCC 2998 = test system: HCC 2998

| Compound | GI50 (A498) | GI50 (HL-60) | GI50 (HOP-62) | GI50 (HOP-92) | GI50 (HT-29) | GI50 (LOX IMVI) | GI50 (M14) | GI50 (MDA-MB-231) | GI50 (NCI-H460) | GI50 (NCI/ADR-RES) | GI50 (RXF 393) | GI50 (SF-268) | GI50 (SF-539) | GI50 (SK-MEL-2) | GI50 (SK-MEL-5) | GI50 (SK-OV-3) | GI50 (SW-620) | GI50 (UO-31) | GI50 (KM12) | GI50 (HCC 2998) |
| --- | --- | --- | --- | --- | --- | --- | --- | --- | --- | --- | --- | --- | --- | --- | --- | --- | --- | --- | --- | --- |
| CC(=O)OCOC(=O)CN(CC(=O)OCOC(C)=O)Cc1cc2c(cc1OC(C)=O)Oc1cc(OC(C)=O)c(CN(CC(=O)OCOC(C)=O)CC(=O)OCOC(C)=O)cc1C21OC(=O)c2ccccc21 | 1.25 µM (inactive) | 0.01 µM (active) | 1.1 µM (active) | 1.05 µM (active) | 0.483 µM (active) | 0.299 µM (active) | 1.16 µM (inactive) | 1.45 µM (inactive) | 0.366 µM (active) | 11 µM (inactive) | 0.34 µM (active) | 1.27 µM (inactive) | 0.255 µM (active) | 0.369 µM (active) | 0.953 µM (active) | 2.54 µM (inactive) | 0.759 µM (active) | 1.82 µM (inactive) |  |  |
| CC(C)=Cc1cc(C)c2c(O)cc(C)c3c2c1C(C)=C(O)C3=O | 22.9 µM (inactive) | 29.9 µM (inactive) | 20.7 µM (inactive) | 7.85 µM (inactive) | 14.9 µM (inactive) | 20.1 µM (inactive) | 22.4 µM (inactive) | 24.9 µM (inactive) | 21.2 µM (inactive) | 30.1 µM (inactive) |  | 21.1 µM (inactive) | 28.1 µM (inactive) | 22.9 µM (inactive) | 17.1 µM (inactive) | 28.9 µM (inactive) | 31.5 µM (inactive) | 32.7 µM (inactive) | 20.5 µM (inactive) |  |
| COc1cc(CCN)c(OC)c(OC)c1 | > 100 µM (inactive) | 40.4 µM (inactive) | > 100 µM (inactive) | 62.4 µM (inactive) | > 100 µM (inactive) | > 100 µM (inactive) | 58.7 µM (inactive) | > 100 µM (inactive) | > 100 µM (inactive) | > 100 µM (inactive) | > 100 µM (inactive) | > 100 µM (inactive) |  | > 100 µM (inactive) | 23.6 µM (inactive) | > 100 µM (inactive) | 36.2 µM (inactive) | > 100 µM (inactive) | > 100 µM (inactive) |  |
| Cc1nn(C(=O)c2ccncc2)c2c1C(c1ccccc1)SC(=N)N2 (stereo unspecified) |  | > 10 µM (inactive) | > 10 µM (inactive) | > 10 µM (inactive) | > 10 µM (inactive) | > 10 µM (inactive) | > 10 µM (inactive) | > 10 µM (inactive) | > 10 µM (inactive) | > 10 µM (inactive) | > 10 µM (inactive) | > 10 µM (inactive) | > 10 µM (inactive) | > 10 µM (inactive) | > 10 µM (inactive) | > 10 µM (inactive) | > 10 µM (inactive) |  | > 10 µM (inactive) | > 10 µM (inactive) |
| CCOC(=O)C(NC(=O)c1ccccc1)(Nc1ccc(S(=O)(=O)Nc2ncccn2)cc1)C(F)(F)F (stereo unspecified) |  | > 100 µM (inactive) | > 100 µM (inactive) | > 100 µM (inactive) | > 100 µM (inactive) | > 100 µM (inactive) | > 100 µM (inactive) | > 100 µM (inactive) | > 100 µM (inactive) | > 100 µM (inactive) | > 100 µM (inactive) | > 100 µM (inactive) | > 100 µM (inactive) | > 100 µM (inactive) | > 100 µM (inactive) | 0.513 µM (active) | > 100 µM (inactive) | > 100 µM (inactive) | > 100 µM (inactive) | > 100 µM (inactive) |
| NC(=S)Nc1c(S(N)(=O)=O)cc(S(N)(=O)=O)c(Cl)c1Cl |  | > 100 µM (inactive) | > 100 µM (inactive) | > 100 µM (inactive) | > 100 µM (inactive) | > 100 µM (inactive) | > 100 µM (inactive) | > 100 µM (inactive) |  | > 100 µM (inactive) | > 100 µM (inactive) | > 100 µM (inactive) | 0.443 µM (active) | > 100 µM (inactive) | > 100 µM (inactive) | > 100 µM (inactive) | > 100 µM (inactive) | > 100 µM (inactive) | > 100 µM (inactive) |  |
| CNc1cc(N)ccc1C(=O)N1CCC[C@H]1CO | > 100 µM (inactive) |  | > 100 µM (inactive) | > 100 µM (inactive) | > 100 µM (inactive) | > 100 µM (inactive) | > 100 µM (inactive) | > 100 µM (inactive) | > 100 µM (inactive) | > 100 µM (inactive) |  | > 100 µM (inactive) | > 100 µM (inactive) | > 100 µM (inactive) |  | > 100 µM (inactive) | > 100 µM (inactive) | > 100 µM (inactive) | > 100 µM (inactive) |  |
| CNN1C(=O)c2c(C)c(C)c(C#N)c(N)c2C1=O |  | > 100 µM (inactive) |  | > 100 µM (inactive) |  | > 100 µM (inactive) | > 100 µM (inactive) | > 100 µM (inactive) | > 100 µM (inactive) | > 100 µM (inactive) | 40.8 µM (inactive) | > 100 µM (inactive) | > 100 µM (inactive) | > 100 µM (inactive) | > 100 µM (inactive) |  | > 100 µM (inactive) | > 100 µM (inactive) | > 100 µM (inactive) | > 100 µM (inactive) |
| CN(C)CCNc1nc2c(c(=O)n(C)c(=O)n2C)n1C | > 100 µM (inactive) | > 100 µM (inactive) | > 100 µM (inactive) | > 100 µM (inactive) | > 100 µM (inactive) | > 100 µM (inactive) | > 100 µM (inactive) | > 100 µM (inactive) | > 100 µM (inactive) | > 100 µM (inactive) | > 100 µM (inactive) | > 100 µM (inactive) | > 100 µM (inactive) |  | > 100 µM (inactive) | > 100 µM (inactive) | > 100 µM (inactive) | > 100 µM (inactive) | > 100 µM (inactive) |  |
| CC(OC(C)(C)C)C(NC(=O)C(N)CCCCNC(=O)OC(C)(C)C)C(=O)NC(Cc1ccccc1)C(=O)O (stereo unspecified) (H-Lys(Boc)-Thr(tBu)-Phe-OH; configuration not given here) |  | > 100 µM (inactive) | > 100 µM (inactive) | > 100 µM (inactive) | > 100 µM (inactive) | > 100 µM (inactive) | > 100 µM (inactive) | > 100 µM (inactive) | > 100 µM (inactive) | > 100 µM (inactive) | > 100 µM (inactive) | > 100 µM (inactive) | > 100 µM (inactive) | > 100 µM (inactive) | > 100 µM (inactive) | 15.2 µM (inactive) | > 100 µM (inactive) | > 100 µM (inactive) | > 100 µM (inactive) | > 100 µM (inactive) |
| Cc1ccc(C(=O)C#Cc2cn(C3CC(O)C(CO)O3)c(=O)[nH]c2=O)cc1 (stereo unspecified) |  |  | > 100 µM (inactive) | 32.6 µM (inactive) | > 100 µM (inactive) | 95.9 µM (inactive) | 53.1 µM (inactive) | > 100 µM (inactive) | > 100 µM (inactive) | > 100 µM (inactive) | > 100 µM (inactive) | > 100 µM (inactive) | > 100 µM (inactive) | > 100 µM (inactive) | > 100 µM (inactive) | > 100 µM (inactive) | 31 µM (inactive) | > 100 µM (inactive) | > 100 µM (inactive) | > 100 µM (inactive) |
| Cc1cccc(C)c1NC(=O)C(Cc1c[nH]c2ccccc12)NC(=O)OCc1ccccc1 (stereo unspecified) | 21.2 µM (inactive) | 12.4 µM (inactive) | 41 µM (inactive) | 22.4 µM (inactive) | 18.7 µM (inactive) | 19.5 µM (inactive) | 11.5 µM (inactive) | 16.7 µM (inactive) | 17.7 µM (inactive) | 14.4 µM (inactive) | 13.9 µM (inactive) | 18.7 µM (inactive) | 20.2 µM (inactive) | 16.9 µM (inactive) | 13.5 µM (inactive) | 22.8 µM (inactive) | 27.8 µM (inactive) | 10.3 µM (inactive) | 19.6 µM (inactive) |  |
| C/C=C1/CN2CCC34c5ccccc5N(C)C23C2CC1C4(C(=O)OC)C(O)O2 (stereo unspecified) | > 100 µM (inactive) | > 100 µM (inactive) | > 100 µM (inactive) | > 100 µM (inactive) | > 100 µM (inactive) | > 100 µM (inactive) | > 100 µM (inactive) | > 100 µM (inactive) | > 100 µM (inactive) | > 100 µM (inactive) |  | > 100 µM (inactive) | > 100 µM (inactive) | > 100 µM (inactive) | > 100 µM (inactive) | > 100 µM (inactive) | > 100 µM (inactive) | > 100 µM (inactive) | > 100 µM (inactive) | > 100 µM (inactive) |
| COc1ccc(/C=N/Nc2nc(=S)[nH]c3[nH]ncc23)cc1 | 40.9 µM (inactive) | > 100 µM (inactive) | 29.9 µM (inactive) |  | 48.5 µM (inactive) | 33.8 µM (inactive) | 41.8 µM (inactive) | 34.6 µM (inactive) | 79.8 µM (inactive) | > 100 µM (inactive) | > 100 µM (inactive) | 93.8 µM (inactive) | > 100 µM (inactive) | 45.7 µM (inactive) | 30 µM (inactive) | > 100 µM (inactive) | > 100 µM (inactive) | > 100 µM (inactive) | 49.9 µM (inactive) | 35 µM (inactive) |
| O=C(O)C1C2C=CC(O2)C1C(=O)NCc1cccnc1 (stereo unspecified) | > 100 µM (inactive) | > 100 µM (inactive) | > 100 µM (inactive) | > 100 µM (inactive) | > 100 µM (inactive) | > 100 µM (inactive) | > 100 µM (inactive) | > 100 µM (inactive) | > 100 µM (inactive) | > 100 µM (inactive) | > 100 µM (inactive) | > 100 µM (inactive) | > 100 µM (inactive) | > 100 µM (inactive) | > 100 µM (inactive) | > 100 µM (inactive) | > 100 µM (inactive) | > 100 µM (inactive) | > 100 µM (inactive) |  |
